{"source": "patent US12637498B2", "about": "“PDLIM2 as a biomarker for cancer and as an anti-cancer treatment target” (UNIVERSITY OF PITTSBURGH—OF THE COMMONWEALTH SYSTEM OF …, priority 2019, dated 2026)", "key": {"[1]": {"tested_on": "PDLIM2", "assay": "qPCR analysis of PDLIM2 expression in human lung cancer cell lines", "assay_type": "cell-based"}, "[2]": {"tested_on": "PDLIM2", "assay": "qPCR analysis of PDLIM2 in mouse MAD109 lung cancer cells", "assay_type": "cell-based"}, "[3]": {"tested_on": "PDLIM2", "assay": "IHC staining of PDLIM2 in mouse lung tumors and tissues (urethane model)", "assay_type": "in vivo", "method": "(§1) Urethane model: 6-8-week-old mice under FVB/N background were intraperitoneally (i.p.) injected with urethane (1 g/kg body weight, Sigma-Aldrich, St. Louis, MO, USA) once a week for six weeks. All mice were sacrificed for lung tumor examinations seven (for no drug treatment experiments) or six (for drug treatment experiments) weeks post urethane treatment. For drug treatment experiments, the epigenetic agents 5-aza-dC (1 mg/kg body weight, Sigma-Aldrich, St. Louis, MO, USA) and MS-275 (1 mg/kg body weight, Selleckchem, Houston, TX, USA), chemotherapeutic drugs carboplatin (30 mg/kg body weight, AdipoGen, San Diego, CA, USA) and paclitaxel (15 mg/kg body weight, AdipoGen, San Diego, CA, USA), and/or PD-1 neutralizing antibody (200 μg/mouse, BioXCell, West Lebanon, NH, USA) were i.p injected as indicated in FIG. 4. Surface tumors in mouse lungs were counted by three blinded readers under a dissecting microscope, and tumor diameters were measured by microcalipers. K-Ras^G12D model: 6-8-week-old mice under FVB/N background were intranasally administered 1×10^7 plaque-forming units of Cre-expressing adenovirus (adenocre; Gene Transfer Vector Core, University of Iowa, Iowa City, IA). Three months post AdenoCre treatment, all mice were sacrificed for lung tumor examinations.\nMouse or tissues were excised, fixed in formalin, embedded in paraffin, and cut into 4-pm-thick sections. […]"}, "[4]": {"tested_on": "lung cancer induced by urethane", "assay": "Urethane model of lung cancer, tumor examination", "assay_type": "in vivo, mouse", "conditions": "ΔSPC mice (lung epithelial PDLIM2 deletion), 5-aza-dC and MS275 combination therapy (Epi)", "method": "as §1\nPDLIM2flx/flx/SP-C-rtTAtg/−/(tetO)7CMV-Cretg/tg (ΔSPC) mice under a pure FVB/N background and PDLIM2−/− mice under a pure BABL/C background have been described before (Sun et al., Nat. Commun. 2019. 10, 5324). For lung carcinogenesis, six to eight week old ΔSPC and wild type FVB/N mice were intraperitoneally (i.p.) injected with urethane (1 mg/g body weight, Sigma-Aldrich, St. Louis, MO, USA) once a week for six consecutive weeks, followed by different treatment as shown in FIGS. 45A and 49A. Mice were sacrificed for lung inflammation and tumor examinations at six weeks post urethane treatment. Surface tumors in mouse lungs were counted blinded under a dissecting microscope, and tumor diameters were measured by microcalipers. […]"}, "[5]": {"tested_on": "human lung cancer cells", "assay": "Cell growth assays", "assay_type": "cell-based", "conditions": "human lung cancer cells with PDLIM2 knockdown (shRNA), in vitro", "method": "Cells were seeded into 12-well plates at a density of 5,000 cells per well, in the presence or absence of the indicated treatment. Cell density was determined by replacing the medium with 2 μmol/L of calcein AM in 1× dissociation solution (Trevigen) at the indicated time points. After 1 h of incubation, diesterase activity (relative fluorescence units) was measured with a Tecan Infinite 200 Microplate Reader, using an excitation wavelength of 485 nm and emission wavelength of 520 nm."}, "[6]": {"tested_on": "PD-L1", "assay": "qPCR of PD-L1 in lung cancer cells", "assay_type": "cell-based, human", "conditions": "lung cancer cells", "from_the_text": "Mouse lung tissues and BAL cells were subjected to RNA extraction, RNA reverse transcription and real-time PCR as described (Li et al., Oncoimmunology 7, e1435250 (2018); Sun et al., Bio. Protoc. 7, pii: e2287 (2017))."}, "[7]": {"tested_on": "PD-L1", "assay": "IHC staining of PD-L1 in lung cancer (urethane model)", "assay_type": "in vivo, mouse", "conditions": "5-aza-dC and MS-275 together", "method": "as §1\nMouse or tissues were excised, fixed in formalin, embedded in paraffin, and cut into […] sections. Sections were stained with H&E, or subjected to sequential incubations with different primary antibodies and peroxidase-conjugated goat anti-rabbit secondary antibodies. The human lung tumor tissue arrays were described previously (Sun et al., Oncogene 35, 2299-2310 (2016)).\nLung tissues were excised, fixed in formalin, embedded in paraffin, and cut into 4-μm-thick sections. Sections were stained with H&E, or subjected to sequential incubations with the indicated primary antibodies, biotinylated secondary antibodies and streptavidin-HRP."}, "[8]": {"assay": "Toxicity: animal body weight and H&E staining of major organs", "assay_type": "in vivo, mouse", "conditions": "mice with lung cancer; 1 mg/kg of 5-aza-dC and MS-275 twice per week for 6 weeks"}}, "note": "“Also recorded” adds a separate entry of the source."}
{"compound": "Nc1ccccc1NC(=O)c1ccc(CNC(=O)OCc2cccnc2)cc1", "note": "[MS-275, entinostat]", "values": [{"measurement": "PDLIM2 expression (qPCR)", "setting": "[1]; H460 human lung cancer cells", "value": "PDLIM2 recovery; also recorded: time-dependent induction of PDLIM2"}, {"measurement": "PDLIM2 expression (qPCR)", "setting": "[1]; human lung cancer cell lines", "value": "induction of PDLIM2"}, {"measurement": "PDLIM2 expression (qPCR)", "setting": "[1]; human lung cancer cell lines, listed as MS275", "value": "induced PDLIM2 re-expression"}, {"measurement": "PDLIM2 expression (qPCR)", "setting": "[1]; normal human lung epithelial cell line NL-20 with oncogenic K-Ras Q61H mutant", "value": "PDLIM2 re-induction"}, {"measurement": "PDLIM2 expression (qPCR)", "setting": "[2]", "value": "PDLIM2 re-induction"}, {"measurement": "PDLIM2 expression in murine lung cancers", "setting": "[3]; both in vitro and in vivo", "value": "could be restored"}, {"measurement": "PDLIM2 expression in mouse lung tumor (IHC staining)", "setting": "[3]; urethane model, 5-aza-dC and MS-275 (epigenetic drugs) given together", "value": "PDLIM2 recovery"}, {"measurement": "lung cancer treatment (tumor examination)", "setting": "[4]", "value": "completely lost the ability to treat lung cancer; also recorded: complete resistance"}, {"measurement": "cell growth", "setting": "[5]", "value": "protected human lung cancer cells; also recorded: protection of human lung cancer cells"}, {"measurement": "PD-L1 expression (qPCR)", "setting": "[6]", "value": "PD-L1 induction"}, {"measurement": "PD-L1 expression in lung cancer (IHC staining)", "setting": "[7]", "value": "PD-L1 induction"}, {"measurement": "animal body weight", "setting": "[8]", "value": "body weight loss"}]}
